Consider 20 compounds from ChEMBL document CHEMBL5137036, “Design and synthesis of highly TRAIL expression HDAC inhibitors based on ONC201 to promote apoptosis of colorectal cancer” (Eur J Med Chem, 2022).

Broadly, the IC50 is the concentration that gives 50% inhibition.

One assay concerns MV4-11. Kind of assay: Antiproliferative activity against human MV4-11 cells assessed as inhibition of cell growth incubated for 72 hrs by luminescence based analysis. It is filed as functional. Conditions: MV4-11, 72 h.
In assay [1] the target is T1, Histone deacetylase 1 (Homo sapiens, UniProt Q13547). The assay is described as follows: Inhibition of human HDAC1 using RHKKAc fluorogenic peptide as substrate preincubated for 10 mins followed by substrate addition by fluorescence based analysis.
T1 sequence (Q13547 whole entry): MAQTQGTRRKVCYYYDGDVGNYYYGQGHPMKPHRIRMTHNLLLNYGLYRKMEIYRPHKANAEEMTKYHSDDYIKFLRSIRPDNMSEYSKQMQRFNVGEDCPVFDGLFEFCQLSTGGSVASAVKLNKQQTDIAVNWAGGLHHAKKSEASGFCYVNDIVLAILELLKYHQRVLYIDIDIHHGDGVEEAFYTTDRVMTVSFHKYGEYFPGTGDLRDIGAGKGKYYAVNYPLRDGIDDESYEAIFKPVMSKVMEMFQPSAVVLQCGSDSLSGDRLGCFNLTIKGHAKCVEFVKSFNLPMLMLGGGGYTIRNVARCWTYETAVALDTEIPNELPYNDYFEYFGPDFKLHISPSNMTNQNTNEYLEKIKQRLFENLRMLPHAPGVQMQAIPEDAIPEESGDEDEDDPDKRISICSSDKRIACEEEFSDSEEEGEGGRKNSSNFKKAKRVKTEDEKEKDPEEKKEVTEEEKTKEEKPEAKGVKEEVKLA
In the next assay the test system is HepG2. Kind of assay: Antiproliferative activity against human HepG2 cells assessed as inhibition of cell growth incubated for 72 hrs by luminescence based analysis. It is filed as functional. The note with it: HepG2, 72 h.
The test system of assay [2] is HCT-116. The assay is described as follows: Antiproliferative activity against human HCT-116 cells assessed as inhibition of cell growth incubated for 72 hrs by luminescence based analysis. Type of assay: functional. Conditions: HCT-116, 72 h.
Assay [3] addresses T1, Histone deacetylase 1. Kind of assay: Inhibition of HDAC1 in human HCT-116 cells assessed as increase in DR5 protein expression at 0.5 uM incubated for 12 hrs by Western blot analysis. Type of assay: cell-based.
In assay [4] the target is T1, Histone deacetylase 1. Kind of assay: Inhibition of human HDAC1 assessed as residual activity at 1 uM using RHKKAc fluorogenic peptide as substrate preincubated for 10 mins followed by substrate addition by fluorescence based analysis relative to control.
In assay [5] the test system is HCT-116. Kind of assay: Antiproliferative activity against human HCT-116 cells assessed as residual activity at 2 uM incubated for 72 hrs by luminescence based analysis relative to control. It is filed as functional.
For assay [6], the system named is HCT-116. The assay is described as follows: Induction of apoptosis in human HCT-116 cells assessed as late apoptotic cells at 0.5 uM incubated for 24 hrs by AnnexinV-FITC/PI staining based flow cytometry (reference value: 0.82 %). It is filed as functional. (In general: Flow cytometry measures light scatter and fluorescence of single cells or particles in a stream.)

Assay [7] has as its system HCT-116. Kind of assay: Induction of apoptosis in human HCT-116 cells assessed as viable cells at 0.5 uM incubated for 24 hrs by AnnexinV-FITC/PI staining based flow cytometry (reference value: 93.64%). It is filed as functional. Conditions: read-out: Activity.
Assay [8] has as its system HCT-116. The assay is described as follows: Induction of apoptosis in human HCT-116 cells assessed as early apoptotic cells at 0.5 uM incubated for 24 hrs by AnnexinV-FITC/PI staining based flow cytometry (reference value: 0.93 %). Type of assay: functional.
Assay [9] deals with HCT-116. The assay is described as follows: Induction of apoptosis in human HCT-116 cells assessed as dead cells at 0.5 uM incubated for 24 hrs by AnnexinV-FITC/PI staining based flow cytometry (reference value: 4.62 %). Type of assay: functional.

SMILES strings stand for the structures. Calls of active or inactive are those of the source. The calls are words filed in the database; no cut-off is given here.

Turning to `N#Cc1ccc(CN2C(=O)C3=C(CCN(Cc4ccc(C(=O)Nc5ccccc5N)cc4)C3)N3CCN=C23)cc1`, the half-maximal inhibitory concentration (IC50) in the assay with MV4-11 came to 957 nM; on Histone deacetylase 1 [1], 174 nM; with HepG2 it was 4720 nM; with HCT-116 [2], 967 nM.

At Histone deacetylase 1 [1], `NC1=C(CCCc2ccccc2)C(=O)N(Cc2ccc(C(=O)Nc3ccc(F)cc3N)cc2)C2=NCCN21` gave an IC50 of 413 nM.

For the compound `NC1=C(CCCc2ccccc2)C(=O)N(Cc2ccc(C(=O)Nc3ccccc3N)cc2)C2=NCCN21`, the IC50 in the assay on MV4-11 came out at 1270 nM; on Histone deacetylase 1 [1], 66.9 nM; in the assay on HepG2, 4490 nM; in the assay with HCT-116 [2] it was 673 nM. Further, the inhibition entry on Histone deacetylase 1 [3] was “Active”.

Take `Nc1ccccc1NC(=O)c1ccc(CN2C(=O)C3=C(CCN(Cc4nc5ccccc5[nH]4)C3)N3CCN=C23)cc1`: the Activity on Histone deacetylase 1 [4] was 58.3%.

As for `Nc1ccccc1NC(=O)c1ccc(CN2C(=O)C3=C(CCN(Cc4ccc(Cl)c(C(F)(F)F)c4)C3)N3CCN=C23)cc1`, on Histone deacetylase 1 [4], the Activity stood at 52.2%.

On to `Nc1ccccc1NC(=O)c1ccc(CN2CCC3=C(C2)C(=O)N(Cc2cccnc2)C2=NCCN23)cc1`, for which, at Histone deacetylase 1 [4], the Activity was determined as 46.4%.

Regarding `Nc1ccccc1NC(=O)c1ccc(CN2C(=O)C3=C(CCN(Cc4ccccc4)C3)N3CCN=C23)cc1`, the IC50 with MV4-11 is 753 nM; on Histone deacetylase 1 [1], 198 nM; in the assay on HepG2, 4000 nM; in the assay on HCT-116 [2] it was 1450 nM. Besides, the inhibition result on Histone deacetylase 1 [3] is “Active”.

Turning to `Cc1ccc(/C=C/C(=O)N2CCC3=C(C2)C(=O)N(Cc2ccc(C(=O)Nc4ccccc4N)cc2)C2=NCCN23)o1`, the concentration for half-maximal inhibition (IC50) in the assay on MV4-11 turned out to be 2430 nM; against Histone deacetylase 1 [1], 377 nM; with HepG2 it was 4520 nM. Further, the Activity in the assay with HCT-116 [5] worked out at 79.55%.

On to `Nc1cc(F)ccc1NC(=O)c1ccc(CN2C(=O)C3=C(CCN(Cc4ccccc4)C3)N3CCN=C23)cc1`, for which the Activity at Histone deacetylase 1 [4] came to 78.3%.

For `Nc1cc(F)ccc1NC(=O)c1ccc(CNC(=O)/C=C/c2cccnc2)cc1` [TUCIDINOSTAT], the values for the Activity in the assay with HCT-116 [6], in the assay on HCT-116 [8] and in the assay on HCT-116 [9] were 1.66%, 1.22% and 8.27%, respectively. Besides, the IC50 in the assay with MV4-11 was determined as 783 nM; in the assay on HepG2 it was 2000 nM. The viability at 0.5 µM in the assay with HCT-116 [7] stood at 88.8%.

Consider `Cc1ccccc1CN1C(=O)C2=C(CCN(Cc3ccc(C(=O)Nc4ccccc4N)cc3)C2)N2CCN=C12`, for which the half-maximal inhibitory concentration (IC50) with MV4-11 was 801 nM; against Histone deacetylase 1 [1] it was 253 nM; in the assay on HepG2, 3560 nM; with HCT-116 [2] it was 1080 nM.

Take `CNC1=C(CCCc2ccccc2)C(=O)N(Cc2ccc(C(=O)Nc3ccccc3N)cc2)C2=NCCN21`: the Activity on Histone deacetylase 1 [4] came out at 63.8%.

With `NC1=C(CCNC(=O)c2ccccc2)C(=O)N(Cc2ccc(C(=O)Nc3ccccc3N)cc2)C2=NCCN21`, the IC50 was found to be 828 nM in the assay on MV4-11, 273 nM against Histone deacetylase 1 [1] and 1270 nM with HepG2. Further, the Activity in the assay on HCT-116 [5] is on record as 88.98%.

With `Nc1ccccc1NC(=O)c1ccc(CN2CCC3=C(C2)C(=O)N(Cc2cccc(F)c2)C2=NCCN23)cc1`, at Histone deacetylase 1 [4], the Activity was 49.1%.

On to `Nc1ccccc1NC(=O)c1ccc(CN2C(=O)C3=C(CCN(C(=O)/C=C/c4ccc(Cl)cc4F)C3)N3CCN=C23)cc1`, for which the IC50 stood at 1450 nM in the assay with MV4-11, 278 nM on Histone deacetylase 1 [1], 6170 nM in the assay with HepG2 and 662 nM with HCT-116 [2].

As for `COc1ccc(CN2CCC3=C(C2)C(=O)N(Cc2ccc(C(=O)Nc4ccccc4N)cc2)C2=NCCN23)cc1`, the Activity at Histone deacetylase 1 [4] amounted to 44.4%.

Consider `Cc1ccccc1CN1CCC2=C(C1)C(=O)N(Cc1ccc(C(=O)Nc3ccc(F)cc3N)cc1)C1=NCCN12`, for which the Activity at Histone deacetylase 1 [4] is 68%.

On to `Nc1ccccc1NC(=O)c1ccc(CN2C(=O)C3=C(CCN(Cc4ccc5ccccc5c4)C3)N3CCN=C23)cc1`, for which, at Histone deacetylase 1 [4], the Activity was 58.1%.

With `CC(c1ccccc1)N1C(=O)C2=C(CCN(Cc3ccc(C(=O)Nc4ccccc4N)cc3)C2)N2CCN=C21` (stereo not drawn), at Histone deacetylase 1 [4], the Activity is 46.3%.

Regarding `Nc1ccccc1NC(=O)c1ccc(CN2C(=O)C(CCCc3ccccc3)=C(O)N3CCN=C23)cc1`, the IC50 at Histone deacetylase 1 [1] is 600 nM.
